Measured values reported in US20090176839A1, “FORMULATIONS OF 3-(6-(1-(2,2-DIFLUOROBENZO[D][1,3]DIOXOL-5-YL) CYCLOPROPANECARBOXAMIDO)-3-METHYLPYRIDIN-2-YL)BENZOIC ACID” (priority 2007, published 2009).
Values joined by “and” are separate entries in the source; they are usually repeats but may differ in a detail not shown here. Equal values may be shown once.

Experiments:
[1] = Single oral pharmacokinetics of the HCl salt in suspension in fed and fasted male rats; format: in vivo, male Sprague Dawley rats; conditions: 30 mg/kg; for AUC0-INF: HCl salt suspension; for Clast / F / Tmax / t1/2 / tlast: HCl salt
Method: (§1) Non-validated research grade assays were used for these analyses. All pharmacokinetic studies were conducted using fed animals unless otherwise specified.
The tmax following oral administration of the HCl salt was 3.7 hours under fed and 3.3 hours under fasted conditions, which was similar to the tmax of 3.0 to 4.7 hours following oral administration of Compound 1 under fed conditions.

[2] = Single oral pharmacokinetics of the HCl salt in suspension in male dogs; format: in vivo, male beagle dogs; conditions: for AUC0-INF / Cmax: mean (SD)
Method: as §1
At nominal dose levels of 5 to 200 mg/kg in 0.5% polysorbate 80/0.5% methylcellulose/water, exposure was high and relatively dose proportional to 200 mg/kg (Table 5). […] Bioavailability ranged from 24% to 49% at all dose levels studied and in both suspension formulations.

[3] = Stability of 6 mg/mL aqueous methylcellulose-polysorbate 80 suspension (HPLC, XRPD, NMR); format: physicochemical; conditions: 0.5% methylcellulose/0.5% polysorbate 80; HCl salt quickly converted to Compound 1 at T(0)
Method: Methylcellulose (0.5 g) was combined with 99.0 g of purified water in a beaker and stirred in a 60-70° C. water bath for 30′-1 hr. The solution was stirred in a 0° C. ice/water bath for another 30′ or until clear. Polysorbate 80 (0.5 g) was added and stirring at room temperature followed for 30′-1 hr or until a clear solution was obtained.
The desired amount of 0.5% methylcellulose and 0.5% polysorbate 80 stock solution for making a 6 mg/mL based on free base (6.48 mg/mL based on HCl salt) was transferred into the vial and sonicated for 20 minutes with alternate stirring for 1-2 minutes. The solution was homogenized for approximately 1-2 minutes.
As with 0.5% methylcellulose formulation prepared previously, the HCl salt was quickly converted to Compound 1 in Form I at T(0) resulting in a crystalline free form suspension as shown by XRPD (FIG. 10) and confirmed by ^1H NMR analysis (FIGS. 11-13). Additionally, the solid form in suspension at T(0) was recovered an subjected to HPLC analysis: […]

[4] = Solubility (statement); format: physicochemical; conditions: water
[5] = Oral pharmacokinetics of Compound 1 and HCl salt in suspension in male dogs at 200 mg/kg
[6] = 0.5% polysorbate 80/0.5% MC/Water, 5 mg/kg
[7] = 0.5% polysorbate 80/0.5% MC/Water, 25 mg/kg
[8] = 0.5% polysorbate 80/0.5% MC/Water, 50 mg/kg
[9] = 0.5% polysorbate 80/0.5% MC/Water, 100 mg/kg
[10] = 0.5% polysorbate 80/0.5% MC/Water, 200 mg/kg

Cc1ccc(NC(=O)C2(c3ccc4c(c3)OC(F)(F)O4)CC2)nc1-c1cccc(C(=O)O)c1.Cl [HCl salt, 3-(6-(1-(2,2-difluorobenzo[d][1,3]dioxol-5-yl)cyclopropanecarboxamido)-3-methylpyridin-2-yl)benzoic acid.HCl]
AUC0-INF ([1]; Fasted): 383 µg·h/mL
AUC0-INF ([1]; Fed): 340 µg·h/mL
Clast ([1]; Fasted): 60 ng/mL
F ([1]; Fasted): >100%
Tmax ([1]; Fasted): 3.3 h and 3.33 h
t1/2 ([1]; Fasted): 5.36 h
tlast ([1]; Fasted): 48 h
Clast ([1]; Fed): 240 ng/mL
F ([1]; Fed): >100%
Tmax ([1]; Fed): 3.7 h and 3.67 h
t1/2 ([1]; Fed): 6.07 h
tlast ([1]; Fed): 48 h
F ([2]; 0.5% MC/Water, 1 mg/kg): 35%
T1/2 ([2]; 0.5% MC/Water, 1 mg/kg): 6.0 h
Tmax ([2]; 0.5% MC/Water, 1 mg/kg): 0.83 h
AUC0-INF ([2]; 0.5% MC/Water, 1 mg/kg): 2.2 (0.5) hr · μg/mL
Cmax ([2]; 0.5% MC/Water, 1 mg/kg): 0.37 (0.2) μg/mL
F ([2]; 0.5% MC/Water, 3 mg/kg): 49%
T1/2 ([2]; 0.5% MC/Water, 3 mg/kg): 5.3 h
Tmax ([2]; 0.5% MC/Water, 3 mg/kg): 1.7 h
AUC0-INF ([2]; 0.5% MC/Water, 3 mg/kg): 9.3 (4.8) hr · μg/mL
Cmax ([2]; 0.5% MC/Water, 3 mg/kg): 1.1 (0.5) μg/mL
F ([2]; 0.5% MC/Water, 10 mg/kg): 40%
T1/2 ([2]; 0.5% MC/Water, 10 mg/kg): 8.8 h
Tmax ([2]; 0.5% MC/Water, 10 mg/kg): 1.0 h
AUC0-INF ([2]; 0.5% MC/Water, 10 mg/kg): 28.4 (12.8) hr · μg/mL
Cmax ([2]; 0.5% MC/Water, 10 mg/kg): 8.9 (7.2) μg/mL
F [2, 6]: 24%
T1/2 [2, 6]: 7.0 h
Tmax [2, 6]: 1.0 h
AUC0-INF [2, 6]: 11.0 (3.6) hr · μg/mL
Cmax [2, 6]: 3.0 (0.5) μg/mL
F [2, 7]: 41%
T1/2 [2, 7]: 5.9 h
Tmax [2, 7]: 2.0 h
AUC0-INF [2, 7]: 56.8 (22.1) hr · μg/mL
Cmax [2, 7]: 18.0 (3.7) μg/mL
F [2, 8]: 27%
T1/2 [2, 8]: 4.9 h
Tmax [2, 8]: 1.7 h
AUC0-INF [2, 8]: 63.4 (22.9) hr · μg/mL
Cmax [2, 8]: 21.0 (7.1) μg/mL
F [2, 9]: 46%
T1/2 [2, 9]: 5.4 h
Tmax [2, 9]: 1.7 h
AUC0-INF [2, 9]: 268 (123) hr · μg/mL
Cmax [2, 9]: 54.4 (6.8) μg/mL
F [2, 10]: 30%
T1/2 [2, 10]: 5.9 h
Tmax [2, 10]: 2.3 h
AUC0-INF [2, 10]: 523 (46.8) hr · μg/mL
Cmax [2, 10]: 101 (30.2) μg/mL
physical stability of suspension [3]: not physically stable
solubility in water [4]: sparingly soluble
Clast ([5]; HCl salt): 128 ng/mL
F ([5]; HCl salt): 53%
Tmax ([5]; HCl salt): 2.5 h
t1/2 ([5]; HCl salt): 5.5 h
tlast ([5]; HCl salt): 48 h
AUC0-INF ([5]; HCl salt suspension): 755 µg·h/mL
